From patent US8163756B2 (priority 2004, dated 2012)
Structures can show the parent of a compound that is named as a salt.

Tests used:
Type in all cases: biochemical
[1] = target: T1, Abl kinase (Homo sapiens, UniProt P00519); assay: Abl kinase assay A2 (as A1, 1.1 nM enzyme, 2 h pre-incubation, 0.5 mM ATP)
T1 sequence (P00519 229-512): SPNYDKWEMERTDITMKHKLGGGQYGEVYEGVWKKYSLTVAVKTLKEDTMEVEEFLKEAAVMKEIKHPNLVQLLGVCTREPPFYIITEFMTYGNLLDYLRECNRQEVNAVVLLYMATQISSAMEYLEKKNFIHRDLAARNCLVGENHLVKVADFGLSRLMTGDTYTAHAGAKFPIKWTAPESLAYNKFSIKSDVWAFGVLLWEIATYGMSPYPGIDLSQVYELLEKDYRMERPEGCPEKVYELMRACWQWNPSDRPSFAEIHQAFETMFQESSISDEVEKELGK
Protocol: (§1) IC50 values were calculated from a series of percent inhibition values determined at a range of inhibitor concentrations using software routines as implemented in the GraphPad Prism software package.

[2] = target: T1, Abl kinase; assay: Abl kinase assay A1 (pyruvate kinase/lactate dehydrogenase coupled, spectrophotometric); conditions: Method A1; read-out: Abl Data (IC50)
Protocol: as §1

[3] = target: KDR kinase (Homo sapiens, UniProt P35968, DEL940-989/E990V); assay: KDR kinase assay K2 (as K1, 2.1 nM enzyme, 2 h pre-incubation, 1.0 mM ATP); conditions: Method K2; read-out: KDR Data (IC50)
Protocol: as §1

[4] = target: phosphorylated p-38-alpha kinase (Homo sapiens, UniProt Q16539); assay: P-38 alpha kinase assay P1 (coupled spectrophotometric, 2 h pre-incubation); conditions: method P1 (2 h pre-incubation); read-out: P-38 Data
[5] = target: B-Raf(V599E) kinase (Homo sapiens, UniProt P15056, V600E); assay: B-Raf(V599E) kinase assay B1 (construct 1, MEK1 substrate, coupled spectrophotometric)
Protocol: The test compounds were incubated with the reaction mixtureat 30° C. for 2 h. […] The reaction rate was calculated using the […] time frame. […] IC50 values were calculated from a series of percent inhibition values determined at a range of inhibitor concentrations using software routines as implemented in the GraphPad Prism software package.

[6] = Method A2, read-out: Abl Data (IC50)

phosphorylated p-38-alpha kinase, sequence (Q16539 1-360 isoform Q16539-2): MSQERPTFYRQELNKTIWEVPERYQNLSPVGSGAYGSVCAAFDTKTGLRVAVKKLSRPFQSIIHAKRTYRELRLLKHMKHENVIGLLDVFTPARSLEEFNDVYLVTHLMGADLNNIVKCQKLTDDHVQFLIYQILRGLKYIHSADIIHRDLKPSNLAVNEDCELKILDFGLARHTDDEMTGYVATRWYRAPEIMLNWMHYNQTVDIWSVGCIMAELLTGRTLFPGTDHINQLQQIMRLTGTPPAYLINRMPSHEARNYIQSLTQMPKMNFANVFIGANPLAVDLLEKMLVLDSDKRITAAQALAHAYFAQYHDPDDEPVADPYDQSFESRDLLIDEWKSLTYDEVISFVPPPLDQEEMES
KDR kinase, sequence (P35968 with tags, fused parts or gaps DEL940-989/E990V): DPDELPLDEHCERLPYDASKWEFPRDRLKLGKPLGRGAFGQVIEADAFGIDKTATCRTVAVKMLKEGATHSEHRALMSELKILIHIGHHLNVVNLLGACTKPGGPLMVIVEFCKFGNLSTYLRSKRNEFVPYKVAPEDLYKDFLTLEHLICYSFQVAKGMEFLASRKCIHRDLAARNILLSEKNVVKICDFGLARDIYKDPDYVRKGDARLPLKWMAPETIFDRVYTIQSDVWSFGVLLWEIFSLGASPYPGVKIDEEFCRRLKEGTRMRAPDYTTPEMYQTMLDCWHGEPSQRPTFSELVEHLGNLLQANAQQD
B-Raf(V599E) kinase, sequence (P15056 with tags, fused parts or gaps V600E): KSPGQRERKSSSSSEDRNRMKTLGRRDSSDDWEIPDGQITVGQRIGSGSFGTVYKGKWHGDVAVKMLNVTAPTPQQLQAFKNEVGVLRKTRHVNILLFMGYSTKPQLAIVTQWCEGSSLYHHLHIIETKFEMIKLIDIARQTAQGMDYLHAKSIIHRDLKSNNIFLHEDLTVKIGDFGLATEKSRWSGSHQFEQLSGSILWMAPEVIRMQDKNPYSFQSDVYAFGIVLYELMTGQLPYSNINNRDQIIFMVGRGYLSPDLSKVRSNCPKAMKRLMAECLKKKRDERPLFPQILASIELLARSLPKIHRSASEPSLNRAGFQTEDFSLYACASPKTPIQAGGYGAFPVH

Row | Compound | IC50 [1, 6] [nM] | IC50 [2] [nM] | IC50 [3] [nM] | IC50 [5] [nM] | also measured
1 | CC(C)(C)c1cc(NC(=O)Nc2ccc(-c3cccc4c3CNC4=O)cc2)n(-c2ccc3c(c2)CC(C(=O)O)NC3)n1 (centres unmarked) [Example 181, 6-(3-t-butyl-5-(3-(4-(1-oxoisoindolin-4-yl)phenyl)ureido)-1H-pyrazol-1-yl)-1,2,3,4-tetrahydroisoquinoline-3-carboxylic acid] | 6.6 | – | – | – | –
2 | CC(C)(C)c1cc(NC(=O)Nc2cccc(Cl)c2Cl)n(-c2ccc3c(c2)CC(C(N)=O)NC3)n1 (centres unmarked) [Example 188, 1-(3-t-butyl-1-(3-carbamoyl-1,2,3,4-tetrahydroisoquinolin-6-yl)-1H-pyrazol-5-yl)-3-(2,3-dichloro-phenyl)urea] | – | 110 | 150 | 5.8 | IC50 [4]: 17 nM
3 | CNC(=O)c1cc(Oc2ccc(NC(=O)Nc3cc(C(C)(C)C)nn3-c3ccc4nc(N5CCNCC5)ccc4c3)cc2)ccn1 [Example 170, 1-(3-t-butyl-1-(2-(piperazin-1-yl)quinolin-6-yl)-1H-pyrazol-5-yl)-3-(4-(2-(methylcarbamoyl)pyridin-4-yloxy)phenyl)urea] | 1.8 | – | – | 40 | –
4 | Cn1c(=O)c(-c2cccc(NC(=O)Nc3cc(C(C)(C)C)nn3-c3ccc4c(c3)CCNC4)c2)cc2cncnc21 [Example 149, 1-(3-t-butyl-1-(1,2,3,4-tetrahydroisoquinolin-6-yl)-1H-pyrazol-5-yl)-3-(3-(8-methyl-7-oxo-7,8-dihydropyrido[2,3-d]pyrimidin-6-yl)phenyl)urea] | 1.2 | – | – | 9.3 | –
5 | Cn1ccc2cc(-n3nc(C(C)(C)C)cc3NC(=O)Nc3cccc(Cl)c3Cl)ccc21 [Example 117, 1-(3-t-butyl-1-(1-methyl-1H-indol-5-yl)-1H-pyrazol-5-yl)-3-(2,3-dichlorophenyl)urea] | – | 230 | 58 | 3.2 | IC50 [4]: 59 nM
6 | CC(C)(C)c1cc(NC(=O)Nc2cccc(Oc3cccnc3)c2)n(-c2ccc3c(c2)CCNC3C(=O)NCC(O)CO)n1 (centres unmarked) [Example 184, 1-(1-(1-((2,3-dihydroxypropyl)carbamoyl)-1,2,3,4-tetrahydroisoquinolin-6-yl)-3-t-butyl-1H-pyrazol-5-yl)-3-(3-(pyridin-3-yloxy)phenyl)urea] | 10 | – | – | – | –
7 | Cc1ccc(NC(=O)Nc2cc(C(C)(C)C)nn2-c2ccc3c(c2)CCNC3)cc1Nc1nccc(-c2cccnc2)n1 [Example 153, 1-(3-t-butyl-1-(1,2,3,4-tetrahydroisoquinolin-6-yl)-1H-pyrazol-5-yl)-3-(4-methyl-3-(4-(pyridin-3-yl)pyrimidin-2-ylamino)phenyl)urea dihydrochloride] | – | – | – | 27 | IC50 [1]: 1.2 nM
8 | CC(C)(C)c1cc(NC(=O)Nc2ccc(-c3cccc4c3CNC4=O)cc2)n(-c2ccc3c(c2)CC(C(N)=O)NC3)n1 (centres unmarked) [Example 183, 1-(3-t-butyl-1-(3-carbamoyl-1,2,3,4-tetrahydroisoquinolin-6-yl)-1H-pyrazol-5-yl)-3-(4-(1-oxoisoindolin-4-yl)phenyl)urea] | 20 | – | – | – | –
9 | CC(C)(C)c1cc(NC(=O)Nc2cccc(Oc3cccnc3)c2)n(-c2ccc3c(c2)CC(C(=O)NCC(O)CO)NC3)n1 (centres unmarked) [Example 182, 1-(1-(3-((2,3-dihydroxypropyl)carbamoyl)-1,2,3,4-tetrahydroisoquinolin-6-yl)-3-t-butyl-1H-pyrazol-5-yl)-3-(3-(pyridin-3-yloxy)phenyl)urea] | 3.4 | – | – | – | –
10 | CC(C)(C)c1cc(NC(=O)Nc2cccc(Cl)c2Cl)n(-c2ccc3c(=O)[nH]cnc3c2)n1 [Example 194, 1-(3-t-butyl-1-(4-oxo-3,4-dihydroquinazolin-7-yl)-1H-pyrazol-5-yl)-3-(2,3-dichlorophenyl)urea] | 540 | – | – | – | –
11 | CC(C)(C)c1cc(NC(=O)Nc2cccc(C#N)c2)n(-c2ccc3c(c2)CCNC3)n1 [Example 139, 1-(3-t-butyl-1-(1,2,3,4-tetrahydro-isoquinolin-6-yl)-1H-pyrazol-5-yl)-3-(3-cyanophenyl)urea] | 140 | – | – | – | –
12 | CC(C)(C)c1cc(NC(=O)Nc2ccc(-c3cccc4c3CNC4=O)cc2)n(-c2ccc3c(c2)CCN3S(C)(=O)=O)n1 [Example 192, 1-(3-t-butyl-1-(1-(methylsulfonyl)indolin-5-yl)-1H-pyrazol-5-yl)-3-(4-(1-oxoisoindolin-4-yl)phenyl)urea] | 27 | – | – | – | –
13 | Cc1ccc(NC(=O)Nc2cc(C(C)(C)C)nn2-c2cccc(CC(=O)NCC(O)CO)c2)cc1Nc1ncccn1 (centres unmarked) [Example 38, 1-(3-t-butyl-1-(3-(2-(2,3-dihydroxypropylamino)-2-oxoethyl)phenyl)-1H-pyrazol-5-yl)-3-(4-methyl-3-(pyrimidin-2-ylamino)phenyl)urea] | 1400 | – | – | – | –
14 | O=C(Nc1cccc(Oc2cccnc2)c1)Nc1cc(C2CCCC2)nn1-c1ccc2[nH]c(=O)ccc2c1 [Example 164, 1-(3-cyclopentyl-1-(2-oxo-1,2-dihydroquinolin-6-yl)-1H-pyrazol-5-yl)-3-(3-(pyridin-3-yloxy)phenyl)urea] | 33 | – | – | – | –
15 | CC(C)(C)c1cc(NC(=O)Nc2cc(F)cc(F)c2F)n(-c2ccc3ncccc3c2)n1 [Example 54, 1-(3-t-butyl-1-(quinolin-6-yl)-1H-pyrazol-5-yl)-3-(2,3,5-trifluorophenyl)urea] | – | 120 | 240 | 4.8 | –
16 | CC(C)(C)c1cc(NC(=O)Nc2cccc(-c3ccc(N)nc3)c2)n(-c2ccc3c(c2)CCC(=O)N3)n1 [Example 160, 1-(3-(6-aminopyridin-3-yl)phenyl)-3-(3-t-butyl-1-(2-oxo-1,2,3,4-tetrahydroquinolin-6-yl)-1H-pyrazol-5-yl)urea] | 14900 | – | – | – | –
17 | CC(C)(C)c1cc(NC(=O)Nc2cc(F)cc(C#N)c2)n(-c2ccc3c(c2)CCNC3)n1 [Example 152, 1-(3-t-butyl-1-(1,2,3,4-tetrahydroisoquinolin-6-yl)-1H-pyrazol-5-yl)-3-(3-cyano-5-fluorophenyl)urea hydrochloride] | – | – | – | – | IC50 [1]: 570 nM
18 | COc1ccc(-n2nc(C(C)(C)C)cc2NC(=O)Nc2cccc(Cl)c2Cl)cc1 [Example 18, 1-[3-t-butyl-1-(4-methoxyphenyl)-1H-pyrazol-5-yl]-3-(2,3-dichlorophenyl)urea] | – | 830 | 240 | 458 | –
19 | COc1cccc(-n2nc(C(C)(C)C)cc2NC(=O)Nc2ccc(C#N)cc2)c1 [Example 16, 1-(3-t-butyl-1-(3-methoxyphenyl)-1H-pyrazol-5-yl)-3-(4-cyanophenyl)urea] | – | 5900 | 3400 | – | IC50 [4]: 1300 nM
20 | CCOC(=O)Cc1cccc(-n2nc(C(C)(C)C)cc2NC(=O)Nc2cccc(Cl)c2Cl)c1 [Example 23, ethyl 2-(3-(3-t-butyl-5-(3-(2,3-dichlorophenyl)ureido)-1H-pyrazol-1-yl)phenyl)acetate] | – | 3800 | 1000 | 4.8 | IC50 [4]: 21 nM
21 | CC(C)(C)c1cc(NC(=O)Nc2ccc(-c3cccc4c3CNC4=O)cc2)n(-c2ccc3c(c2)CCN3)n1 [Example 191, 1-(3-t-butyl-1-(indolin-5-yl)-1H-pyrazol-5-yl)-3-(4-(1-oxoisoindolin-4-yl)phenyl)urea] | 21 | – | – | – | –
22 | Cc1ccc(NC(=O)Nc2cc(C(C)(C)C)nn2-c2ccc3nc(N4CCNCC4)ccc3c2)cc1Nc1nccc(-c2cccnc2)n1 [Example 171, 1-(3-t-butyl-1-(2-(piperazin-1-yl)quinolin-6-yl)-1H-pyrazol-5-yl)-3-(4-methyl-3-(4-(pyridin-3-yl)pyrimidin-2-ylamino)phenyl)urea] | 4 | – | – | – | –
23 | CC(C)(C)c1cc(NC(=O)Nc2cccc(Cl)c2Cl)n(-c2ccc3c(c2)CCN3S(C)(=O)=O)n1 [Example 108, 1-(3-t-butyl-1-(1-(methylsulfonyl)indolin-5-yl)-1H-pyrazol-5-yl)-3-(2,3-dichlorophenyl)urea] | – | 250 | 13 | 1.5 | IC50 [4]: 9 nM
24 | CC(C)(C)c1cc(NC(=O)Nc2cccc(Cl)c2Cl)n(-c2ccc3ncccc3c2)n1 [Example 52, 1-[3-t-butyl-1-(quinolin-6-yl)-1H-pyrazol-5-yl]-3-(2,3-dichlorophenyl)urea] | – | 140 | 63 | 1.8 | IC50 [4]: 23 nM
25 | O=C1CCc2cc(-n3nc(C4CCCC4)cc3NC(=O)Nc3cccc(Oc4cccnc4)c3)ccc2N1 [Example 133, 1-(3-cyclopentyl-1-(2-oxo-1,2,3,4-tetrahydroquinolin-6-yl)-1H-pyrazol-5-yl)-3-(3-(pyridin-3-yloxy)phenyl)urea] | 48 | – | – | – | –
26 | CC(C)(C)c1cc(NC(=O)Nc2cccc(-c3cccnc3)c2)n(-c2ccc3c(c2)CCC(=O)N3)n1 [Example 161, 1-(3-t-butyl-1-(2-oxo-1,2,3,4-tetrahydroquinolin-6-yl)-1H-pyrazol-5-yl)-3-(3-(pyridin-3-yl)phenyl)urea] | – | – | – | – | inhibition at 1 µM ([1]; @ 1 μM, Method A2, read-out: Abl Data (percent inhibition)): 3%
27 | CC(C)(C)c1cc(NC(=O)Nc2ccc(Cl)cc2)n(-c2cccc(C#N)c2)n1 [Example 7, 1-(3-t-butyl-1-(3-cyanophenyl)-1H-pyrazol-5-yl)-3-(4-chlorophenyl)urea] | – | 5200 | 870 | 8.2 | –
